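Test compounds were applied to cells in 96-well plates for 48 hours at 5 doses. GI50 is the concentration that inhibits growth by half.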 The source made the active and inactive calls. No stated cut-off is given here; in the data, active = GI50 up to about 1.1 µM and inactive = higher.
Assays:
Assay in all cases: growth of human tumour cells (NCI), 48 h
[1] = tested on: OVCAR-4
[2] = tested on: EKVX
[3] = tested on: SNB-19
[4] = tested on: LOX IMVI
[5] = tested on: HOP-92
[6] = tested on: TK-10
[7] = tested on: HL-60
[8] = tested on: K562
[9] = tested on: OVCAR-8
[10] = tested on: Malme-3M
[11] = tested on: SK-MEL-2
[12] = tested on: UACC-257
[13] = tested on: 786-0
[14] = tested on: OVCAR-5
[15] = tested on: ACHN
[16] = tested on: CAKI-1
[17] = tested on: SK-OV-3
[18] = tested on: IGROV-1
[19] = tested on: SK-MEL-5
[20] = tested on: UACC-62
[21] = tested on: HT-29
[22] = tested on: KM-20L2
[23] = tested on: HCC 2998
[24] = tested on: CCRF-CEM
[25] = tested on: HOP-62
[26] = tested on: M19-MEL
[27] = tested on: A498
[28] = tested on: NCI-H226
[29] = tested on: SK-MEL-28
[30] = tested on: LXFL 529
[31] = tested on: NCI-H23
[32] = tested on: KM12
[33] = tested on: SNB-78
[34] = tested on: U-251
[35] = tested on: M14
[36] = tested on: HCT-15
[37] = tested on: HOP-18
[38] = tested on: UO-31
[39] = tested on: SF-539
[40] = tested on: SF-295
[41] = tested on: NCI-H522
[42] = tested on: MOLT-4
[43] = tested on: NCI-H460
[44] = tested on: SNB-75
[45] = tested on: COLO 205
[46] = tested on: SF-268
[47] = tested on: XF498
[48] = tested on: SN12C
[49] = tested on: DMS-273
[50] = tested on: DLD-1
[51] = tested on: RPMI-8226
[52] = tested on: SW-620
[53] = tested on: HCT-116
[54] = tested on: A549
[55] = tested on: RXF 393
[56] = tested on: SR
[57] = tested on: OVCAR-3

Q: Which results are given for `c1cc2nnsc2s1`?
A: GI50 [1]: > 100 µM (inactive); GI50 [2]: > 100 µM (inactive); GI50 [3]: > 100 µM (inactive); GI50 [4]: 60 µM (inactive); GI50 [5]: > 100 µM (inactive); GI50 [6]: > 100 µM (inactive); GI50 [7]: > 100 µM (inactive); GI50 [8]: > 100 µM (inactive); GI50 [9]: > 100 µM (inactive); GI50 [10]: > 100 µM (inactive); GI50 [11]: > 100 µM (inactive); GI50 [12]: > 100 µM (inactive); GI50 [13]: 44.5 µM (inactive); GI50 [14]: > 100 µM (inactive); GI50 [15]: > 100 µM (inactive); GI50 [16]: > 100 µM (inactive); GI50 [17]: > 100 µM (inactive); GI50 [18]: > 100 µM (inactive); GI50 [19]: > 100 µM (inactive); GI50 [20]: > 100 µM (inactive); GI50 [21]: > 100 µM (inactive); GI50 [22]: > 100 µM (inactive); GI50 [23]: > 100 µM (inactive); GI50 [24]: > 100 µM (inactive); GI50 [25]: > 100 µM (inactive); GI50 [26]: > 100 µM (inactive); GI50 [27]: > 100 µM (inactive); GI50 [28]: > 100 µM (inactive); GI50 [29]: > 100 µM (inactive); GI50 [30]: 90.8 µM (inactive); GI50 [31]: > 100 µM (inactive); GI50 [32]: > 100 µM (inactive); GI50 [33]: > 100 µM (inactive); GI50 [34]: > 100 µM (inactive); GI50 [35]: > 100 µM (inactive); GI50 [36]: > 100 µM; GI50 [37]: > 100 µM (inactive); GI50 [38]: > 100 µM (inactive); GI50 [39]: > 100 µM (inactive); GI50 [40]: > 100 µM (inactive); GI50 [41]: > 100 µM (inactive); GI50 [42]: > 100 µM (inactive); GI50 [43]: > 100 µM (inactive); GI50 [44]: > 100 µM (inactive); GI50 [45]: 42.3 µM (inactive); GI50 [46]: > 100 µM (inactive); GI50 [47]: > 100 µM (inactive); GI50 [48]: > 100 µM (inactive); GI50 [49]: 70.6 µM (inactive); GI50 [50]: 60.4 µM (inactive); GI50 [51]: 93.5 µM (inactive); GI50 [52]: 39.2 µM (inactive)

Q: With `Cc1ccc(NCC(=O)N2CC(=O)Nc3ccccc32)c(C)c1` as the compound, how does the GI50 [1] read?
A: > 100 µM (inactive)

Q: What about the GI50 [2] of the same compound?
A: > 100 µM (inactive)

Q: And the GI50 [3]?
A: > 100 µM (inactive)

Q: And the GI50 [53]?
A: > 100 µM (inactive)

Q: And the GI50 [4]?
A: > 100 µM (inactive)

Q: What about the GI50 [5] of the same compound?
A: > 100 µM (inactive)

Q: And the GI50 [6]?
A: > 100 µM (inactive)

Q: What about the GI50 [7] of the same compound?
A: > 100 µM (inactive)

Q: What about the GI50 [8] of the same compound?
A: > 100 µM (inactive)

Q: And the GI50 [9]?
A: > 100 µM (inactive)

Q: And the GI50 [10]?
A: > 100 µM (inactive)

Q: And the GI50 [11]?
A: > 100 µM (inactive)

Q: And the GI50 [12]?
A: > 100 µM (inactive)

Q: What about the GI50 [13] of the same compound?
A: > 100 µM (inactive)

Q: What about the GI50 [14] of the same compound?
A: > 100 µM (inactive)

Q: And the GI50 [15]?
A: > 100 µM (inactive)

Q: What about the GI50 [16] of the same compound?
A: > 100 µM (inactive)

Q: And the GI50 [54]?
A: > 100 µM (inactive)

Q: And the GI50 [17]?
A: > 100 µM (inactive)

Q: What about the GI50 [55] of the same compound?
A: > 100 µM (inactive)

Q: And the GI50 [19]?
A: > 100 µM (inactive)

Q: What about the GI50 [56] of the same compound?
A: > 100 µM (inactive)

Q: And the GI50 [20]?
A: 95.1 µM (inactive)

Q: And the GI50 [21]?
A: > 100 µM (inactive)

Q: What about the GI50 [22] of the same compound?
A: > 100 µM (inactive)

Q: What about the GI50 [23] of the same compound?
A: > 100 µM (inactive)

Q: And the GI50 [24]?
A: > 100 µM (inactive)

Q: And the GI50 [57]?
A: > 100 µM (inactive)

Q: And the GI50 [25]?
A: > 100 µM (inactive)

Q: And the GI50 [26]?
A: > 100 µM (inactive)

Q: And the GI50 [28]?
A: > 100 µM (inactive)

Q: And the GI50 [29]?
A: > 100 µM (inactive)

Q: What about the GI50 [30] of the same compound?
A: > 100 µM (inactive)

Q: And the GI50 [31]?
A: > 100 µM (inactive)

Q: And the GI50 [32]?
A: > 100 µM (inactive)

Q: And the GI50 [33]?
A: > 100 µM (inactive)

Q: And the GI50 [34]?
A: > 100 µM (inactive)

Q: What about the GI50 [35] of the same compound?
A: > 100 µM (inactive)

Q: And the GI50 [36]?
A: > 100 µM

Q: And the GI50 [37]?
A: > 100 µM (inactive)

Q: And the GI50 [38]?
A: > 100 µM (inactive)

Q: What about the GI50 [39] of the same compound?
A: > 100 µM (inactive)

Q: What about the GI50 [40] of the same compound?
A: > 100 µM (inactive)

Q: And the GI50 [41]?
A: > 100 µM (inactive)

Q: What about the GI50 [42] of the same compound?
A: > 100 µM (inactive)

Q: And the GI50 [43]?
A: > 100 µM (inactive)

Q: What about the GI50 [44] of the same compound?
A: > 100 µM (inactive)

Q: What about the GI50 [45] of the same compound?
A: > 100 µM (inactive)

Q: What about the GI50 [46] of the same compound?
A: > 100 µM (inactive)

Q: And the GI50 [47]?
A: > 100 µM (inactive)

Q: And the GI50 [48]?
A: > 100 µM (inactive)

Q: What about the GI50 [49] of the same compound?
A: > 100 µM (inactive)

Q: What about the GI50 [50] of the same compound?
A: > 100 µM (inactive)

Q: And the GI50 [51]?
A: > 100 µM (inactive)

Q: And the GI50 [52]?
A: > 100 µM (inactive)
